Results taken from US7125878B2, “Substituted pyrroline kinase inhibitors” (Janssen Pharmaceutica, priority 2002, dated 2006).
Where “and” joins values, the source holds several entries; their conditions need not be identical. Identical values can stand only once.

Legend:
[1] = molecular target: T1, recombinant rabbit GSK-3β protein (Oryctolagus cuniculus, UniProt G1T8E2); experiment: Glycogen Synthase Kinase-3 Assay (33P phosphorylation of PPI-2); type: biochemical; details: for inhibition at 1 µM: two numbers = different days; for IC50: two numbers = data obtained on different days
T1 construct: purchased New England Biolabs
Procedure: Glycogen Synthase Kinase-3 Assay
Compounds were tested for the ability to inhibit recombinant rabbit GSK-3β protein using the following protocol. The test compound was added to a reaction mixture containing Protein Phosphatase Inhibitor-2 (PPI-2) (Calbiochem) (45 ng), rabbit GSK-3β protein (New England Biolabs) (0.75 units) and ^33P-ATP (1 μCi) in 50 mM Tris-HCl (pH 8.0), 10 mM MgCl2, 0.1% BSA, 1 mM DTT and 100 μM Sodium Vanadate. The mixture was reacted for 90 minutes at 30° C. to allow phosphorylation of the PPI-2 protein and then the protein in the reaction was precipitated using 10% TCA. The precipitated protein was collected on filter plates (MultiScreen-DV/Millipore), which were subsequently washed. Finally, the radioactivity was quantified using a TopCount Scintillation Counter (Packard). […] Staurosporine or Valproate, known inhibitors of GSK-3β, were used as a positive control for screening.

[2] = molecular target: PKC-βII (Homo sapiens, UniProt P05771); experiment: Protein Kinase C Histone-Based Assay, isozyme β-II; type: biochemical; details: for IC50: histone III substrate
Procedure: (§1) Compounds were evaluated for PKC isozyme selectivity using histone III as the substrate. […] 100 μg/mL phosphatidylserine, 20 μg/mL diacylglycerol, 30 μM ATP, 1 μCi [^33P]ATP and 200 μg/mL histone III. The reaction was incubated for 10 min at 30° C. Reactions were terminated by TCA precipitation and spotting on Whatman P81 filters. Filters were washed in 75 mM phosphoric acid and the radioactivity quantified by liquid scintillation counting.

[3] = molecular target: PKC-α (Homo sapiens, UniProt P17252); experiment: Protein Kinase C Histone-Based Assay, isozyme α; details: for inhibition at 10 µM: read-out: PKC-α % inhibition
Procedure: as §1

[4] = molecular target: PKC-γ (Homo sapiens, UniProt P05129); experiment: Protein Kinase C Histone-Based Assay, isozyme γ; details: for inhibition at 10 µM: read-out: PKC-γ % inhibition
Procedure: as §1

T1 sequence (G1T8E2 1-432): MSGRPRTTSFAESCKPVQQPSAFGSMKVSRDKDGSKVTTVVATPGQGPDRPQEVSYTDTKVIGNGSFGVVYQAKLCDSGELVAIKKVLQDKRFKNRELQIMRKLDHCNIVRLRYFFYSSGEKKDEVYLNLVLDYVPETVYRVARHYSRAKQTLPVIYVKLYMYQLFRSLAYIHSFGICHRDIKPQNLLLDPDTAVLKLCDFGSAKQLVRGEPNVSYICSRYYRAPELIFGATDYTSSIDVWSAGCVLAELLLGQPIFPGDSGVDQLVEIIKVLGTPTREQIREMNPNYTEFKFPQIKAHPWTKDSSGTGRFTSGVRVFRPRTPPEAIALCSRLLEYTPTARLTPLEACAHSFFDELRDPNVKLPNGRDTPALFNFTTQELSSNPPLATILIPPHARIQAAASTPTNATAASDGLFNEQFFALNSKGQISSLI
Chain of PKC-βII (P05771 1-673 isoform P05771-2): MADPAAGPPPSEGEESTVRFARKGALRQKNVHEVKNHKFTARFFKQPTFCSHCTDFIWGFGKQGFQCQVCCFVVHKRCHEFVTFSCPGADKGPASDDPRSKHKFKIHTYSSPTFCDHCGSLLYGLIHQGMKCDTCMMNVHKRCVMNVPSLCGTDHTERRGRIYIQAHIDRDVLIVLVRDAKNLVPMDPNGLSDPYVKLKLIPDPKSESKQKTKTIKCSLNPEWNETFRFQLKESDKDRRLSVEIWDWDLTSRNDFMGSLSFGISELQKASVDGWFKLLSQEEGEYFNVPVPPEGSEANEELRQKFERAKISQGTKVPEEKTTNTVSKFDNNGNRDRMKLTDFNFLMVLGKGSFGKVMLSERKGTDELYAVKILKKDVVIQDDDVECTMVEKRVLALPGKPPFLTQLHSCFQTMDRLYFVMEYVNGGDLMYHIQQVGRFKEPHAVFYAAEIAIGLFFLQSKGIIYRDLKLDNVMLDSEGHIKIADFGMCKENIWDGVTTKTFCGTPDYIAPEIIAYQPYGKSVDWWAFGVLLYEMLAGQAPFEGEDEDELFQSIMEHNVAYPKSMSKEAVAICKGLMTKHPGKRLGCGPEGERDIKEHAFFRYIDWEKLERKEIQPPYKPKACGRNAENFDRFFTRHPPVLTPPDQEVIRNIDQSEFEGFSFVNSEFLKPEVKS

`CN(C)CCCn1nc(C2=C(c3cn(-c4ccc5ccccc5c4)c4ncccc34)C(=O)NC2=O)c2ccccc21` [Cpd 20, 3-[1-[3-(dimethylamino)propyl]-1H-indazol-3-yl]-4-[1-(2-naphthalenyl)-1H-pyrrolo[2,3-b]pyridin-3-yl]-1H-pyrrole-2,5-dione] showed an inhibition at 1 µM [1] of 21%, an IC50 [2] of 2 nM and an IC50 [3] of 53 nM. It also gave an IC50 [4] of 151 nM.
`O=C1NC(=O)C(c2nn(CCCO)c3ccccc23)=C1c1cn(-c2ccc3ccccc3c2)c2ncccc12` [Cpd 21, 3-[1-(3-hydroxypropyl)-1H-indazol-3-yl]-4-[1-(2-naphthalenyl)-1H-pyrrolo[2,3-b]pyridin-3-yl]-1H-pyrrole-2,5-dione] gave an inhibition at 1 µM [1] of 44%, an IC50 [2] of 36 nM and an IC50 [3] of 1440 nM. For the same molecule, the IC50 [4] was 859 nM.
`COC(=O)NCCCn1cc(C2=C(c3ccccc3OC)C(=O)NC2=O)c2cccnc21` [Cpd 35, [3-[3-[2,5-dihydro-4-(2-methoxyphenyl)-2,5-dioxo-1H-pyrrol-3-yl]-1H-pyrrolo[2,3-b]pyridin-1-yl]propyl]-carbamic acid methyl ester] was tested, and the IC50 [1] was 8 nM and 11 nM, the inhibition at 1 µM [2] was 35% and the inhibition at 10 µM [3] was 31%. It also gave an inhibition at 10 µM [4] of 35%.
`COC(=O)NCCCn1cc(C2=C(c3ccccc3C(F)(F)F)C(=O)NC2=O)c2cccnc21` [Cpd 37, [3-[3-[2,5-dihydro-4-(2-trifluoromethylphenyl)-2,5-dioxo-1H-pyrrol-3-yl]-1H-pyrrolo[2,3-b]pyridin-1-yl]propyl]-carbamic acid methyl ester] was tested, and the IC50 [1] was 14 nM and 19 nM, the IC50 [2] was 342 nM and the IC50 [3] was 5270 nM. For the same molecule, the IC50 [4] was 4750 nM.
With `COc1ccccc1C1=C(c2cn(CCCNC=O)c3ncccc23)C(=O)NC1=O` [Cpd 78, N-[3-[3-[2,5-dihydro-4-(2-methoxyphenyl)-2,5-dioxo-1H-pyrrol-3-yl]-1H-pyrrolo[2,3-b]pyridin-1-yl]propyl]-formamide] the IC50 [1] was 7 nM and 9 nM, the inhibition at 1 µM [2] was 21% and the inhibition at 10 µM [3] was 33%. For the same molecule, the inhibition at 10 µM [4] was 48%.
